# Assay results as given in PubChem BioAssay (NCI).
#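 Following 48 hours of exposure in 96-well plates, responses at five concentrations were used to interpolate endpoints linearly. GI50 marks 50% less growth. TGI: concentration producing complete growth inhibition.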
# Tests used:
# Assay in all cases: NCI-60 cell line screen, 48 h
# A498 renal = system: A498 renal
# EKVX NSCLC = system: EKVX NSCLC
# HCT-116 colon = system: HCT-116 colon
# HT29 colon = system: HT29 colon
# KM12 colon = system: KM12 colon
# RXF 393 renal = system: RXF 393 renal
# SN12C renal = system: SN12C renal
# SW-620 colon = system: SW-620 colon
# TK-10 renal = system: TK-10 renal
# NCI-H522 lung = system: NCI-H522 lung
structure (smiles),measurement,setting,value
CCC1(c2ccncc2)CCC(=O)NC1=O (stereo not given),TGI,A498 renal,> 100 µM
same,TGI,EKVX NSCLC,> 100 µM
same,TGI,HCT-116 colon,> 100 µM
same,TGI,HT29 colon,> 100 µM
same,TGI,KM12 colon,> 100 µM
same,TGI,RXF 393 renal,> 100 µM
same,TGI,SN12C renal,> 100 µM
same,TGI,SW-620 colon,> 100 µM
same,TGI,TK-10 renal,> 100 µM
CCCCn1c(=O)c(/C=C/C(=O)/C=C/c2ccc(O)c(OC)c2)cc2ccc(Cl)cc21,GI50,EKVX NSCLC,2.18 µM
same,TGI,EKVX NSCLC,4.58 µM
same,GI50,HCT-116 colon,1.52 µM
same,TGI,HCT-116 colon,3 µM
same,GI50,HT29 colon,0.846 µM
same,TGI,HT29 colon,2.57 µM
same,GI50,KM12 colon,1.89 µM
same,TGI,KM12 colon,3.66 µM
same,GI50,NCI-H522 lung,1.78 µM
same,TGI,NCI-H522 lung,3.86 µM
same,GI50,RXF 393 renal,1.66 µM
same,TGI,RXF 393 renal,3.25 µM
same,GI50,SN12C renal,1.91 µM
same,TGI,SN12C renal,4.17 µM
same,GI50,SW-620 colon,2.05 µM
same,TGI,SW-620 colon,4.37 µM
same,GI50,TK-10 renal,2.51 µM
same,TGI,TK-10 renal,5.47 µM
CN1C(=O)NC2(O)c3ccccc3C(=O)C12O (stereo not given),TGI,EKVX NSCLC,> 100 µM
same,TGI,HCT-116 colon,> 100 µM
same,TGI,HT29 colon,> 100 µM
same,TGI,KM12 colon,> 100 µM
same,TGI,NCI-H522 lung,> 100 µM
same,TGI,SW-620 colon,> 100 µM
same,TGI,TK-10 renal,> 100 µM
COc1ccc(CNCCCN2C(=O)c3ccc4c5c(ccc(c35)C2=O)C(=O)N(CCCNCCCCNCCCN)C4=O)c(OC)c1OC,GI50,A498 renal,5.5 µM
same,TGI,A498 renal,23.1 µM
same,GI50,EKVX NSCLC,4.05 µM
same,TGI,EKVX NSCLC,19.3 µM
same,GI50,HCT-116 colon,0.534 µM
same,TGI,HCT-116 colon,3.77 µM
same,GI50,HT29 colon,0.452 µM
same,TGI,HT29 colon,3.23 µM
same,GI50,KM12 colon,1.27 µM
same,TGI,KM12 colon,7.53 µM
same,GI50,RXF 393 renal,1.36 µM
same,TGI,RXF 393 renal,3.67 µM
same,GI50,SW-620 colon,0.448 µM
same,TGI,SW-620 colon,2.52 µM
same,GI50,TK-10 renal,2.71 µM
same,TGI,TK-10 renal,12.8 µM
CC(=O)OC1C(O)COC(Oc2c(C)c3c4c(c2O)[C@@H](C)CC[C@@H]4[C@@H](C)C[C@H]3C=C(C)C)C1O (stereo not given in full),GI50,A498 renal,16.6 µM
same,TGI,A498 renal,32.7 µM
same,GI50,HCT-116 colon,21.1 µM
same,TGI,HCT-116 colon,> 100 µM
same,GI50,KM12 colon,14.8 µM
same,TGI,KM12 colon,30.8 µM
same,GI50,NCI-H522 lung,30.9 µM
same,TGI,NCI-H522 lung,> 100 µM
same,GI50,RXF 393 renal,7.81 µM
same,TGI,RXF 393 renal,25.4 µM
same,GI50,SN12C renal,19.3 µM
same,TGI,SN12C renal,44.5 µM
same,GI50,TK-10 renal,14.7 µM
same,TGI,TK-10 renal,29 µM
COc1cccc2c1C(=O)c1c(O)c3c(c(O)c1C2=O)C[C@@](O)(C(=O)COC(=O)c1cccnc1)C[C@@H]3OC1CC(N)C(O)C(C)O1 (stereo not given in full),GI50,A498 renal,0.113 µM
same,TGI,A498 renal,0.334 µM
same,GI50,HCT-116 colon,0.0475 µM
same,TGI,HCT-116 colon,0.492 µM
same,GI50,HT29 colon,0.199 µM
same,TGI,HT29 colon,1.53 µM
same,GI50,KM12 colon,0.284 µM
same,TGI,KM12 colon,8.44 µM
same,GI50,NCI-H522 lung,0.0574 µM
same,TGI,NCI-H522 lung,0.217 µM
same,GI50,RXF 393 renal,0.169 µM
same,TGI,RXF 393 renal,0.589 µM
same,GI50,SN12C renal,0.083 µM
same,TGI,SN12C renal,3.68 µM
same,GI50,SW-620 colon,0.0605 µM
same,TGI,SW-620 colon,2.17 µM
same,GI50,TK-10 renal,0.149 µM
same,TGI,TK-10 renal,0.845 µM
CCc1nc2cc(/C=C/C(=O)NO)c(F)cc2c(=O)n1CCc1ccccc1,GI50,A498 renal,1.02 µM
same,TGI,A498 renal,3.39 µM
same,GI50,EKVX NSCLC,2.36 µM
same,TGI,EKVX NSCLC,10.7 µM
same,GI50,HCT-116 colon,0.313 µM
same,TGI,HCT-116 colon,2.91 µM
same,GI50,HT29 colon,0.588 µM
same,TGI,HT29 colon,12.5 µM
same,GI50,KM12 colon,2.14 µM
same,TGI,KM12 colon,15.5 µM
same,GI50,NCI-H522 lung,0.502 µM
same,TGI,NCI-H522 lung,3.98 µM
same,GI50,RXF 393 renal,0.99 µM
same,TGI,RXF 393 renal,3.56 µM
same,GI50,SW-620 colon,0.619 µM
same,TGI,SW-620 colon,13.9 µM
same,GI50,TK-10 renal,0.881 µM
same,TGI,TK-10 renal,5.49 µM
COC(=O)c1c(C(=O)OC)c(C(=O)OC)c(C(=O)OC)c1C(=O)OC,TGI,EKVX NSCLC,> 100 µM
same,TGI,HT29 colon,> 100 µM
same,TGI,KM12 colon,> 100 µM
same,TGI,NCI-H522 lung,> 100 µM
same,TGI,RXF 393 renal,> 100 µM
same,TGI,SN12C renal,> 100 µM
same,TGI,SW-620 colon,> 100 µM
same,TGI,TK-10 renal,> 100 µM
Cc1occc1C(=S)Nc1ccc(Cl)c(C(=O)OCC2CC2)c1,TGI,A498 renal,> 100 µM
same,TGI,EKVX NSCLC,> 100 µM
same,TGI,HCT-116 colon,> 100 µM
same,TGI,HT29 colon,> 100 µM
same,TGI,KM12 colon,96.3 µM
same,TGI,NCI-H522 lung,> 100 µM
same,TGI,SN12C renal,> 100 µM
same,TGI,SW-620 colon,> 100 µM
same,TGI,TK-10 renal,> 100 µM
Cc1ccc(S(=O)(=O)NC(C)C(=O)O)cc1 (stereo not given),TGI,A498 renal,> 100 µM
same,TGI,EKVX NSCLC,> 100 µM
same,TGI,HT29 colon,> 100 µM
same,TGI,KM12 colon,> 100 µM
same,TGI,NCI-H522 lung,> 100 µM
same,TGI,RXF 393 renal,> 100 µM
same,TGI,SN12C renal,> 100 µM
same,TGI,SW-620 colon,> 100 µM
same,TGI,TK-10 renal,> 100 µM
COc1cc2c(C#N)n3c(c2cc1OC)C(=O)C(c1ccccc1)Oc1ccccc1-3 (stereo not given),GI50,A498 renal,1.85 µM
same,TGI,A498 renal,9.15 µM
same,GI50,HCT-116 colon,3.23 µM
same,TGI,HCT-116 colon,> 100 µM
same,GI50,KM12 colon,3.36 µM
same,TGI,KM12 colon,> 100 µM
same,GI50,RXF 393 renal,3.29 µM
same,TGI,RXF 393 renal,19.5 µM
same,GI50,TK-10 renal,3.35 µM
same,TGI,TK-10 renal,21.3 µM
COc1cc2c(c(OC)c1OC)C(=O)c1c-2n(CCCN)c(=O)c2cc([N+](=O)[O-])ccc12,GI50,A498 renal,1.41 µM
same,TGI,A498 renal,2.99 µM
same,GI50,EKVX NSCLC,3.02 µM
same,TGI,EKVX NSCLC,8.32 µM
same,GI50,HCT-116 colon,0.128 µM
same,TGI,HCT-116 colon,0.274 µM
same,GI50,HT29 colon,0.301 µM
same,GI50,KM12 colon,0.161 µM
same,TGI,KM12 colon,0.369 µM
same,GI50,NCI-H522 lung,5.79 µM
same,TGI,NCI-H522 lung,14 µM
same,GI50,SN12C renal,5.11 µM
same,TGI,SN12C renal,13.6 µM
same,GI50,SW-620 colon,0.31 µM
same,TGI,SW-620 colon,3.3 µM
same,GI50,TK-10 renal,0.616 µM
same,TGI,TK-10 renal,1.3 µM
CCCCCCCCOC(=O)c1cc(O)c(O)c(O)c1,GI50,A498 renal,8.26 µM
same,TGI,A498 renal,24.7 µM
same,GI50,EKVX NSCLC,4.65 µM
same,TGI,EKVX NSCLC,22.4 µM
same,GI50,HCT-116 colon,1.97 µM
same,TGI,HCT-116 colon,12.9 µM
same,GI50,HT29 colon,14.8 µM
same,TGI,HT29 colon,47.6 µM
same,GI50,KM12 colon,2.9 µM
same,TGI,KM12 colon,17.4 µM
same,GI50,RXF 393 renal,5.45 µM
same,TGI,RXF 393 renal,22 µM
same,GI50,SN12C renal,3.21 µM
same,TGI,SN12C renal,31.7 µM
same,GI50,SW-620 colon,2.87 µM
same,TGI,SW-620 colon,19.4 µM
same,GI50,TK-10 renal,3.77 µM
same,TGI,TK-10 renal,> 62.6 µM
COC(=O)/C1=C/C2CC(/C=C(/c3ccccc3)C(=O)O1)C2,TGI,EKVX NSCLC,> 100 µM
same,TGI,HCT-116 colon,56.6 µM
same,TGI,HT29 colon,65.4 µM
same,TGI,KM12 colon,62 µM
same,TGI,NCI-H522 lung,37.9 µM
same,TGI,RXF 393 renal,78 µM
same,TGI,SN12C renal,64.3 µM
same,TGI,SW-620 colon,> 100 µM
same,TGI,TK-10 renal,> 100 µM
c1ccc2c(c1)[Se]c1ccccc1[Se]2,TGI,A498 renal,> 100 µM
same,TGI,HCT-116 colon,72.4 µM
same,TGI,HT29 colon,> 100 µM
same,TGI,KM12 colon,> 100 µM
same,TGI,NCI-H522 lung,> 100 µM
same,TGI,RXF 393 renal,> 100 µM
same,TGI,SN12C renal,> 100 µM
same,TGI,SW-620 colon,> 100 µM
same,TGI,TK-10 renal,> 100 µM
COc1cccc(C(=O)O)c1Cc1cccc2ccccc12,TGI,EKVX NSCLC,> 100 µM
same,TGI,HCT-116 colon,> 100 µM
same,TGI,HT29 colon,> 100 µM
same,TGI,KM12 colon,> 100 µM
same,TGI,NCI-H522 lung,> 100 µM
same,TGI,RXF 393 renal,> 100 µM
same,TGI,SN12C renal,> 100 µM
same,TGI,SW-620 colon,> 100 µM
same,TGI,TK-10 renal,> 100 µM
CCCC(=O)C(CC)/C(CCC(=O)N(Cc1ccccc1)Cc1ccccc1)=N/NC(=O)C[N+](C)(C)C (stereo not given),TGI,A498 renal,> 100 µM
same,TGI,EKVX NSCLC,> 100 µM
same,TGI,HCT-116 colon,> 100 µM
same,TGI,HT29 colon,> 100 µM
same,TGI,KM12 colon,> 100 µM
same,TGI,NCI-H522 lung,> 100 µM
same,TGI,RXF 393 renal,> 100 µM
same,TGI,SN12C renal,> 100 µM
same,TGI,SW-620 colon,> 100 µM
O=C1c2ccccc2C(=O)N1C/C=N/NS(=O)(=O)c1ccc(Cl)cc1,TGI,A498 renal,> 100 µM
same,TGI,EKVX NSCLC,> 100 µM
same,TGI,HCT-116 colon,> 100 µM
same,TGI,HT29 colon,> 100 µM
same,TGI,NCI-H522 lung,> 100 µM
same,TGI,SN12C renal,> 100 µM
same,TGI,SW-620 colon,> 100 µM
same,TGI,TK-10 renal,> 100 µM
